Assay results taken from US6391656B2, “Assay and reagent kit for evaluation of multi-drug resistance in cells” (SOLVO Biotechnology, priority 1994, dated 2002).
In brackets after ≈: the same amount, converted by molar mass. Read-outs that look alike come from different tables or passages of the source.

Columns and labels:
MDR1 [1] = target: T1, MDR1 (Homo sapiens, UniProt P08183); assay: Inhibition of MDR1-mediated calcein-AM extrusion (calcein accumulation) in 3T3 MDR and K562 MDR cells
MRP = target: T2, MRP (Homo sapiens, UniProt P33527); assay: Inhibition of MRP-mediated calcein-AM extrusion (calcein accumulation) in S1MRP and HL60 ADR cells; assay type: cell-based
T2 construct: endogenous in cells

KB3 cells = assay: Calcein accumulation by flow cytometry in control cells; conditions: 100 μmol/l verapamil pretreatment 5 min, control cell line KB3
Description: In the experiments shown in FIG. 2 a drug sensitive (control, cell line KB3) and three increasingly multi-drug resistant (cell lines KB-V1a-c) human epidermoid carcinoma cell lines were examined.
As all the specimens were incubated for the same time (10 min) with calcein-AM, the measure of the accumulation of calcein detected exactly after 10 minutes can be taken as the rate of calcein accumulation.

P388-C cells [2] = assay: Calcein accumulation by fluorescent spectrophotometry in control cells; assay type: cell-based, murine; conditions: 100 μmol/l verapamil
Source text: (§1) Elapsed time is shown on the abscissa and fluorescence intensity in arbitrary units is shown on the ordinate.

MDR1 [3] = target: T1, MDR1
K562-mMDR cells = assay: Cytotoxicity assay, 3 days culture with adriamycin; assay type: cell-based; conditions: Homo sapiens, 72 h, K562-mMDR cell line (inactive mutant MDR protein), read-out: Resistance to Adriamycin (IC50, ng/ml)
Description: (§2) Cells were cultured for 3 days under standard conditions in the presence of 0.1-100 ng/ml adriamycin. The number of cells in the different cell cultures is given as the percentage of the number of cells counted in the culture not treated with the drug. As it can well be seen on FIG. 5, the really expressed drug resistance is in much better accordance with the results obtained by the method of the invention based on the measurement of calcein accumulation than with those obtained by the traditional immunological measurement of MDR expression.
(§3) Cells were cultured for 3 days under standard conditions in the presence of 0.1-100 ng/ml adriamycin. The number of cells in the different cell cultures is given as the percentage of the number of cells counted in the culture not treated with the drug.

K562-C cells = assay: Cytotoxicity assay, 3 days culture with adriamycin; assay type: cell-based; conditions: Homo sapiens, 72 h, K562-C cell line, read-out: Resistance to Adriamycin (IC50, ng/ml)
Description: as §2, §3

K562-MDR cells = assay: Cytotoxicity assay, 3 days culture with adriamycin; assay type: cell-based; conditions: Homo sapiens, 72 h, K562-MDR cell line, read-out: Resistance to Adriamycin (IC50, ng/ml)
Description: as §2, §3

P388-MDRb cells = assay: Cytotoxicity assay, adriamycin resistance; assay type: cell-based, murine; conditions: Mus musculus; P388-MDRb cell line
Source text: as §1

P388-MDRa cells = assay: Cytotoxicity assay, adriamycin resistance; assay type: cell-based, murine; conditions: Mus musculus; P388-MDRa cell line
Source text: as §1

P388-C cells [4] = assay: Cytotoxicity assay, adriamycin resistance; assay type: cell-based, murine; conditions: Mus musculus; P388-C control cell line
Source text: as §1

MDR dependent ATPase = MDR dependent ATPase (Homo sapiens, UniProt P08183); conditions: cited from earlier work
[5] = inhibition of MRP-mediated calcein-AM extrusion, S1MRP and HL60 ADR cells, range of at least 3 independent experiments with each cell line, read-out: IC50 MRP
[6] = read-out: IC50 MDR1, inhibition of MDR1-mediated calcein-AM extrusion, 3T3 MDR and K562 MDR cells, range of at least 3 independent experiments, > = 50% inhibition not achieved (a solubility problem, b esterase inhibition)

T2 sequence (P33527 whole entry): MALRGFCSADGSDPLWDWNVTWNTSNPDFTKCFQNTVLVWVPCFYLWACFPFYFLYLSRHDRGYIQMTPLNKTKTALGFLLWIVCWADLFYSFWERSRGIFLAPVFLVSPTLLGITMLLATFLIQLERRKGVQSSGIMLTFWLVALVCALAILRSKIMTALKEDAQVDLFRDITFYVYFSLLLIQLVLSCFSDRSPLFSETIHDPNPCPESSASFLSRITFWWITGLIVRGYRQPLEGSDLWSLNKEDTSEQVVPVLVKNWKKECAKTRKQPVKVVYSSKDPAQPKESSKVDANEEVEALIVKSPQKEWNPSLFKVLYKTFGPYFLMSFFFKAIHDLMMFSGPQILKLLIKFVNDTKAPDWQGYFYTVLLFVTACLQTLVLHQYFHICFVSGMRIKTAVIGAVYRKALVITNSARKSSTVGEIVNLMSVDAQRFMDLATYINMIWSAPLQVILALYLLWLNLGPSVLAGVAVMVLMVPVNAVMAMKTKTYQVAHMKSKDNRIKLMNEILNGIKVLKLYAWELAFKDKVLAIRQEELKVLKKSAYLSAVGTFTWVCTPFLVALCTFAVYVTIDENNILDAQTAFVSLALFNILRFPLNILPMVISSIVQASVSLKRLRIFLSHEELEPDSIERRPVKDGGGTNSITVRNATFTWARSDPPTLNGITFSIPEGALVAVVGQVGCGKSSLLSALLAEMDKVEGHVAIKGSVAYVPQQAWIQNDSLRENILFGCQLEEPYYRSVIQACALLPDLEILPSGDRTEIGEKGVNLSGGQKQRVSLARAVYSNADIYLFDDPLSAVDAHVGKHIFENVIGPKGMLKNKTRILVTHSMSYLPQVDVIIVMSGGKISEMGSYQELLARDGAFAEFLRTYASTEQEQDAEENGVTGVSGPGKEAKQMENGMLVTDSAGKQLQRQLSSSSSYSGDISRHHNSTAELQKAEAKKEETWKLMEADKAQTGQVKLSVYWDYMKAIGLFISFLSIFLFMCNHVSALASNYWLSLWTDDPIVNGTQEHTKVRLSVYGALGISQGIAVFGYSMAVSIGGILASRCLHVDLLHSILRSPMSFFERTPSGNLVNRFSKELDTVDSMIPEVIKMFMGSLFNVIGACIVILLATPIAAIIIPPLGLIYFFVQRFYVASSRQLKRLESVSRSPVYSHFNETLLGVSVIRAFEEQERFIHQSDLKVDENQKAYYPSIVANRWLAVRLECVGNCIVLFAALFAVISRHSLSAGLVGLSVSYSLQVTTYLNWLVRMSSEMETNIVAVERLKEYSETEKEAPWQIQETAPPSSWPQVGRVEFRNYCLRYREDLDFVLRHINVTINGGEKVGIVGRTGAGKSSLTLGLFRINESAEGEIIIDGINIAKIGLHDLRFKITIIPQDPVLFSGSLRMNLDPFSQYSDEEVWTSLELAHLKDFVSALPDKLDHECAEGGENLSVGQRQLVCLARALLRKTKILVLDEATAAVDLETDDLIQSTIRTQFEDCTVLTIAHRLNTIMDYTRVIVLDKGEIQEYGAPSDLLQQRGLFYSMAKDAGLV
T1 sequence (P08183 whole entry): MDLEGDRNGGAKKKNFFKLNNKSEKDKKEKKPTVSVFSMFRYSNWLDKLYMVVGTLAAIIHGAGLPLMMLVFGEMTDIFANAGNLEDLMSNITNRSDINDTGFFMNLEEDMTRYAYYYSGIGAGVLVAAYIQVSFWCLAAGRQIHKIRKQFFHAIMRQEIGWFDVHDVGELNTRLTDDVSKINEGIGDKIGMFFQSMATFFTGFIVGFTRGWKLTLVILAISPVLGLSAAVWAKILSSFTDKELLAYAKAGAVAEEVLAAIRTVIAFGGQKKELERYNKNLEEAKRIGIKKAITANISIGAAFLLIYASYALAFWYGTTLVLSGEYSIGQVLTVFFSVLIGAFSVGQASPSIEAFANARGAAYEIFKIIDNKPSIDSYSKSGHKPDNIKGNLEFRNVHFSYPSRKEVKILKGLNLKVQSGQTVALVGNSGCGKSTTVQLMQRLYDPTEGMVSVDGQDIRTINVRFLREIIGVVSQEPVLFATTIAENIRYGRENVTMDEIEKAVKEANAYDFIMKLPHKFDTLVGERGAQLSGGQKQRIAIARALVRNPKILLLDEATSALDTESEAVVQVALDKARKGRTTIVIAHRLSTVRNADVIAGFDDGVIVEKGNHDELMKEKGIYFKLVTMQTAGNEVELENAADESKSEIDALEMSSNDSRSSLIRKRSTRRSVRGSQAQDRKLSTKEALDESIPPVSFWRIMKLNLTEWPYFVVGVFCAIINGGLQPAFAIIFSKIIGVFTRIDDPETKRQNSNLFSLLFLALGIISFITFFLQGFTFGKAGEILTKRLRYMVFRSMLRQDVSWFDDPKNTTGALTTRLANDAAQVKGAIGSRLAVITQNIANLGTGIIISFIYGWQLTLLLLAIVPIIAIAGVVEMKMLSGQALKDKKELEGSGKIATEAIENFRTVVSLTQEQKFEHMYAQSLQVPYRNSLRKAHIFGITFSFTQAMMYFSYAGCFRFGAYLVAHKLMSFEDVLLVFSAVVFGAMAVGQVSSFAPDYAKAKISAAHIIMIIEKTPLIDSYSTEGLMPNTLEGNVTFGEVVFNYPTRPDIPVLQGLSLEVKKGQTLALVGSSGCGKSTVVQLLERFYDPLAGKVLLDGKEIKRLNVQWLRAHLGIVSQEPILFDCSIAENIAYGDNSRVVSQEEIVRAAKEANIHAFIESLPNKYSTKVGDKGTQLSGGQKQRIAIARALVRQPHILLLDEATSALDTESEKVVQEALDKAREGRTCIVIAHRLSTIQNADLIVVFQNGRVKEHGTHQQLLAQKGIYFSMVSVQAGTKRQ
MDR dependent ATPase, sequence (P08183 whole entry): as above

| IC50 (MDR1 [1]) | Compound | IC50 (MRP; [5]) | also measured |
| --- | --- | --- | --- |
| > 2000 µM | O=C1C(CC[S+]([O-])c2ccccc2)C(=O)N(c2ccccc2)N1c1ccccc1 (centres unmarked) [Sulfinpyrazone] | 300 to 500 µM |  |
|  | O=[N+]([O-])c1ccc(O)c([N+](=O)[O-])c1 [2,4-DNP] | 30 to 50 µM | IC50 (MDR1 [1]; [6]): > 200 µM |
| 1 to 3 µM | Clc1ccc(COC(Cn2ccnc2)c2ccc(Cl)cc2Cl)cc1 (centres unmarked) [Econazole] | 3 to 10 µM |  |
| > 500 µM | CCc1oc2ccccc2c1C(=O)c1cc(Br)c(O)c(Br)c1 [Benzbromarone] |  |  |
|  | CCCCC[C@H](O)/C=C/[C@H]1C=CC(=O)[C@@H]1CCCCCCC(=O)O [Prostaglandin A1] | 3 to 5 µM | IC50 (MDR1 [1]; [6]): > 100 µM |
|  | COc1ccc(CCN(C)CCCC(C#N)(c2ccc(OC)c(OC)c2)C(C)C)cc1OC (centres unmarked) [Verapamil] |  | effect on calcein accumulation (KB3 cells): no detectable effect; effect on rate of calcein accumulation (P388-C cells [2]): not influenced |
| > 800 µM | COc1ccc2c(c1)c(CC(=O)O)c(C)n2C(=O)c1ccc(Cl)cc1 [Indomethacin] | 10 to 20 µM |  |
| > 800 µM | C=C(CC)C(=O)c1ccc(OCC(=O)O)c(Cl)c1Cl [Ethacrynic acid] | 20 to 30 µM |  |
|  | CC/C(=C(\c1ccccc1)c1ccc(OCCN(C)C)cc1)c1ccccc1 [Tamoxifen] | 3 to 6 µM |  |
|  | N#CC(C#N)=NNc1cccc(Cl)c1 [CCCP] | 10 to 30 µM | IC50 (MDR1 [3]): > 200 µM |
|  | COc1cccc2c1C(=O)c1c(O)c3c(c(O)c1C2=O)C[C@@](O)(C(=O)CO)C[C@@H]3O[C@H]1C[C@H](N)[C@H](O)[C@H](C)O1 [Adriamycin] |  | IC50 (K562-mMDR cells): 0.35 ng/mL (≈ 0.644 nM); IC50 (K562-C cells): 0.7 ng/mL (≈ 1.29 nM); IC50 (K562-MDR cells): 3.1 ng/mL (≈ 5.7 nM); IC50 (P388-MDRb cells): 9 ng/mL (≈ 16.6 nM); IC50 (P388-MDRa cells): 4 ng/mL (≈ 7.36 nM); IC50 (P388-C cells [4]): 0.5 ng/mL (≈ 0.92 nM) |
|  | calcein-acetoxy-methylester [calcein-AM] |  | Ka, activation of the MDR dependent ATPase (MDR dependent ATPase): ≤ 1 µmol/L |
|  | C=C[C@H]1C[N@@]2CC[C@H]1C[C@H]2[C@H](O)c1ccnc2ccc(OC)cc12 [Quinine] | 50 to 100 µM |  |
| > 2000 µM | CCCN(CCC)S(=O)(=O)c1ccc(C(=O)O)cc1 [Probenacid, Probenecid] | 500 to 800 µM |  |
|  | O=C1OC(c2ccc(O)c(S(=O)(=O)O)c2)(c2ccc(O)c(S(=O)(=O)O)c2)c2c(Br)c(Br)c(Br)c(Br)c21 [Bromosulfophthalein] | 100 to 150 µM | IC50 (MDR1 [1]; [6]): > 1000 µM |
|  | CC[C@]1(O)C[C@@H]2CN(CCc3c([nH]c4ccccc34)[C@@](C(=O)OC)(c3cc4c(cc3OC)N(C)[C@H]3[C@@](O)(C(=O)OC)[C@H](OC(C)=O)[C@]5(CC)C=CCN6CC[C@]43[C@@H]65)C2)C1 [Vinblastine] | 2 to 5 µM |  |
|  | C[CH2][Hg][S]c1ccccc1C(=O)[O-].[Na+] [Merthiolate] | 10 to 20 µM | IC50 (MDR1 [1]; [6]): > 200 µM |

| Compound | IC50 (MDR1 [1]) | IC50 (MRP; [5]) | also measured |
| --- | --- | --- | --- |
| O=C(O)CCCc1ccc(N(CCCl)CCCl)cc1 [Chlorambucil] | > 500 µM |  | IC50 (MRP): 30 to 50 µM |
| O=c1c(-c2ccc(O)cc2)coc2cc(O)cc(O)c12 [Genistein] | > 1000 µM | 150 to 200 µM |  |
| CCN1C(=O)C=CC1=O [NEM, N-ethylmaleimide] | > 50 µM | 0.2 to 0.5 µM |  |
| CC[C@H]1/C=C/C=C/C[C@@H](C)[C@H](O)[C@@](C)(O)C(=O)[C@@H](C)[C@H](O)[C@@H](C)C(=O)[C@@H](C)[C@H](O)[C@@H](C)/C=C/C(=O)O[C@@H]2[C@H](C)[C@H](CC1)O[C@]1(CC[C@H](C)[C@H](C[C@@H](C)O)O1)[C@H]2C [Oligomycin] | 1 to 2 µM | 1 to 2 µM |  |
